Experiment: xn = mol fraction of the nth substance listed

CC(C)CCO + CCOCCO
313.15 K, 101 kPa
Details	viscosity [mPa·s]
x1 = 0.102	1.385
x1 = 0.2036	1.425
x1 = 0.8035	1.945

CNCCO + CCOCCO
viscosity [mPa·s], 101.3 kPa
Details	293.15 K	298.15 K	303.15 K	308.15 K	313.15 K	318.15 K	323.15 K
x1 = 0.118	2.547	2.249	1.998	1.785	1.604	1.448	1.313
x1 = 0.34	3.887	3.356	2.92	2.56	2.26	2.006	1.791
x1 = 0.444	4.708	4.021	3.464	3.01	2.634	2.32	2.057
x1 = 0.545	5.72	4.828	4.116	3.541	3.071	2.684	2.362
x1 = 0.737	8.19	6.751	5.636	4.76	4.058	3.492	3.03
x1 = 0.915	11.49	9.252	7.565	6.267	5.255	4.453	3.812

CCOCCO + CCc1ccccc1
viscosity [mPa·s]
Details	298.15 K	308.15 K
101 kPa, x1 = 0.0573	0.658	0.557
101 kPa, x1 = 0.1487	0.696	0.597
101 kPa, x1 = 0.2498	0.749	0.648
101 kPa, x1 = 0.3527	0.817	0.708
101 kPa, x1 = 0.4489	0.895	0.773
101 kPa, x1 = 0.4998	0.944	0.812
101 kPa, x1 = 0.5485	0.995	0.852
101 kPa, x1 = 0.6501	1.121	0.945
101 kPa, x1 = 0.7484	1.273	1.05
101 kPa, x1 = 0.8508	1.469	1.178
101 kPa, x1 = 0.9547	1.721	1.331
101.33 kPa, x2 = 0.0993	1.589	–
101.33 kPa, x2 = 0.1968	1.378	–
101.33 kPa, x2 = 0.293	1.22	–
101.33 kPa, x2 = 0.4069	1.055	–
101.33 kPa, x2 = 0.5133	0.929	–
101.33 kPa, x2 = 0.6286	0.822	–
101.33 kPa, x2 = 0.7484	0.736	–
101.33 kPa, x2 = 0.8672	0.677	–

CC(C)CCO + CN1CCCC1=O
298.15 K, 101 kPa
Details	viscosity [mPa·s]
x2 = 0.0595	3.229
x2 = 0.1189	2.874
x2 = 0.1501	2.732
x2 = 0.2008	2.549
x2 = 0.2536	2.402
x2 = 0.2994	2.298
x2 = 0.3506	2.205
x2 = 0.4002	2.132
x2 = 0.4519	2.06
x2 = 0.5025	2.015
x2 = 0.5513	1.97
x2 = 0.6039	1.926
x2 = 0.6515	1.889
x2 = 0.7026	1.855
x2 = 0.7505	1.823
x2 = 0.8015	1.791
x2 = 0.8546	1.763
x2 = 0.9046	1.739
x2 = 0.9562	1.715

CC(C)CCO + CN(C)C=O
Details	viscosity [mPa·s]
298.15 K, 101 kPa, x2 = 0.5467	1.634

CCn1cc[n+](C)c1.[Cl-] + CN(C)C=O
308.15 K, 101 kPa
Details	viscosity [mPa·s]
x1 = 0.0524	1.045
x1 = 0.0867	1.355
x1 = 0.1232	1.705

CCOCCO + CO
298.15 K, 101 kPa
Details	viscosity [mPa·s]
x1 = 0.038	0.6216
x1 = 0.0816	0.7062
x1 = 0.1322	0.7916
x1 = 0.1916	0.8844
x1 = 0.2623	0.9885
x1 = 0.3478	1.114
x1 = 0.4534	1.255
x1 = 0.5871	1.422
x1 = 0.7619	1.625

CNC(C)=O + CO
303.15 K, 101 kPa
Details	viscosity [mPa·s]
x1 = 0.0999	0.644
x1 = 0.2019	0.798
x1 = 0.3029	0.98
x1 = 0.3939	1.175
x1 = 0.504	1.457
x1 = 0.605	1.778
x1 = 0.6998	2.134
x1 = 0.7934	2.561
x1 = 0.8995	3.14

CC(C)CCO + COCCO
303.15 K, 101.3 kPa
Details	viscosity [mPa·s]
x2 = 0.1536	2.477
x2 = 0.2181	2.305
x2 = 0.3068	2.095
x2 = 0.3756	1.955
x2 = 0.4802	1.772
x2 = 0.6881	1.512
x2 = 0.7438	1.47
x2 = 0.8293	1.413
x2 = 0.9356	1.38

CNCCO + COCCO
viscosity [mPa·s], 101.3 kPa
Details	293.15 K	298.15 K	303.15 K	308.15 K	313.15 K	318.15 K	323.15 K
x1 = 0.101	2.086	1.866	1.677	1.516	1.375	1.254	1.147
x1 = 0.303	3.283	2.869	2.523	2.234	1.988	1.78	1.601
x1 = 0.403	3.985	3.444	3	2.632	2.324	2.064	1.843
x1 = 0.503	4.964	4.234	3.644	3.163	2.766	2.435	2.156
x1 = 0.703	7.364	6.129	5.157	4.384	3.762	3.256	2.839
x1 = 0.901	10.98	8.877	7.286	6.054	5.088	4.323	3.709
